Experimental data published in patent US20250281465A1, “MOLECULES THAT ENHANCE EXTRACELLULAR VESICLE RELEASE” (priority 2022, published 2025).

Test system: mBMDCs
Test: RNA sequencing analysis of mBMDCs
Type: cell-based, mouse
Settings: 5 μM
Method: FIGS. 2A-2C. RNA sequencing analysis of mBMDC treated with compound #634, (A) mBMDCs were treated with compound #634 (5 μM) or Veh (0.1% DMSO) or in triplicate for 5 hours. RNA was isolated, and RNA-seq analysis was performed by UC San Diego IGM Genomic Center. Data were analyzed by UC San Diego Moore Cancer Center Biostatistics and Bioinformatics Shared Resources. […] (B) Kyoto Encyclopedia of Genes and Genomes (KEGG) pathway analysis. Normalized enrichment scores (NES) of the top 10 positively and negatively enriched genes sets (FDR≤0.05 and fold change >2).
mBMDCs were treated with compound 634 (5 μM) or Veh (0.1% DMSO) in triplicate for 5 hours. RNA was isolated, and RNA-seq analysis was performed. […] Data were analyzed by UC San Diego Moore Cancer Center Biostatistics and Bioinformatics Shared Resources.
RNA-seq and Data Analysis. mBMDCs (1.5×10^6 cells, 10^6 cells/mL×1.5 mL) were treated with Veh (0.1% DMSO), 634 (5 μM) for 5 hours, and then the total RNA was isolated using Quick-RNA™ Miniprep Kit (Zymo Research). Each group has triplicates. RNA-seq was performed by the sequencing core at the UC San Diego institute for Genomic Medicine Genomics Center. Briefly, paired-ended sequencing was performed on the Illumina NovaSeq 6000. Reads were aligned to the mouse reference genome (mm10) using STAR (ver. 2.5.1), and mRNA expression levels were calculated per gene using RSEM (ver. 1.3.0). Genes were filtered if more than 24 out of 27 of the samples (including compound 634, there were a total of 8 testing compounds and DMSO in triplicated samples) had counts <10. Raw counts were then quantile normalized and used as expression values in the subsequent analysis. Also, if mouse gene IDs corresponded with multiple human genes, the genes with highest variance in expression values were kept (Miller et al., 2011). A total of 11759 genes remained. Limma (liner models for microarray, using Rlimma package) trend tests were used for differential analysis based on log 2 expression values. The Benjamini-Hochberg procedure was applied to control the false discovery rate (FDR). […] RNA-seq data have been deposited in ArrayExpress, https://www.ebi.ac.uk/arrayexpress/(accession no. E-MTAB-12377) (Hayashi, 2022).

[1] = 5 hours, FDR≤0.05 and fold change >2

SMILES: CCOC(=O)c1c(NS(=O)(=O)c2cccc3nsnc23)sc(C)c1C [compound 634, Ethyl 2-(benzo[c][1,2,5]thiadiazole-4-sulfonamido)-4,5-dimethylthiophene-3-carboxylate]
- FC Cdhr1 (5 hours vs Veh, down-regulated): 0.40
- FC Hrh1 (5 hours vs Veh, down-regulated): 0.46
- FC Cdh1 (5 hours vs Veh, up-regulated): 2.61
- FC Htr7 (5 hours vs Veh, up-regulated): 2.38
- FC Oit3 (5 hours vs Veh, up-regulated): 2.02
- FC Ppm1e (5 hours vs Veh, up-regulated): 2.77
- FC Sla2 (5 hours vs Veh, up-regulated): 2.04
- down-regulated genes [1]: 17 genes
- genes with modulated expression compared to Veh [1]: 103 genes
- up-regulated genes [1]: 86 genes
